Read-outs that look alike come from different tables or passages of the source. Marks after values point to notes of the source that are not given here.
Tests used:
[1] = system: conditioned avoidance response in male Wiga Wistar rats; test: Conditioned avoidance response (CAR) test in rats; type: in vivo; conditions: for ED50: Rattus norvegicus, po, read-out: ED50 (mg/kg) CAR-Inh.
Excerpt: Conditioned Avoidance Response (CAR) Test
The apparatus consisted of an inner box surrounded by an outer box. The inner box was composed of four walls of transparent, synthetic material (length×width×height: 30×30×30 cm), an open top, and a grid floor made of 15 pairs of iron bars (2 mm diameter; 6 mm inter-bar distance). Odd and even bars were connected with a source of alternative current (1.0 mA; Coulbourn Instruments Solid State Shocker/Distributor), which could be interrupted by a switch. The outer box was composed of the same material (length×width×height: 40×40×36 cm), also with an open top, with a distance of 5 cm between the inner and outer box on all sides. To decrease the amount of environmental stimuli, three walls of the outer box were made non-transparent. The front wall was left transparent to allow the necessary inspection of the animal during the test. The upper edge of the outer and inner box served as a target for the rats on which to jump with fore- and hind-paws, respectively.
Avoidance Conditioning and Selection of Animals
From their arrival in the laboratory on the experimental day, male Wiga Wistar rats (230±30 g) were housed in individual cages provided with bedding material.
Latency to avoidance was recorded. The median avoidance response obtained over the three experimental sessions for each rat were used for further calculations.

[2] = molecular target: T1, human mGluR2 receptor (Homo sapiens, UniProt Q14416); test: [35S]GTPγS binding assay, positive allosteric modulation (GTPγS-PAM) in presence of EC20 glutamate; type: biochemical; conditions: in presence of glutamate at EC20, average pEC50 if more experiments, ‡ means tested once; for EC50: read-out: GTPγS - hR2 PAM pEC50 (converted)
T1 construct: expressed in transfected cells; host or cells: CHO cells
In short: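 Membranes from butyrate-stimulated CHO cells expressing human mGluR2 (7 μg protein) preincubated 30 min at 30°C with compound plus ~EC20 glutamate in HEPES pH 7.4, 100 mM NaCl, 3 mM MgCl2, 10 μM GDP, 10 μg/ml saponin. [35S]GTPγS (0.1 nM) incorporation over 30 min at 30°C measured by filtration and scintillation counting.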

[3] = system: PCP-induced hyperlocomotion in male NMRI mice; test: Phencyclidine (PCP)-induced hyperlocomotion in mice (video tracking); type: in vivo; conditions: for ED50: Mus musculus, read-out: Mice ED50 (mg/kg) PCP-Inh.; for Mice ED50 (mg/kg) PCP-Inh. / Mice ED50 (mg/kg) PCP-Inh., estimated ED50 (footnote a): inhibition of PCP-induced hyperlocomotion; for Mice ED50 (mg/kg) PCP-Inh.: dose at which 50% of the tested animals show the effect; for Mice ED50 (mg/kg) PCP-Inh., estimated ED50 (footnote a): estimated ED50 values (n = 3 per dose; 4-fold separation between doses)
Protocol: Motor Activity (Video Tracking)
Apparatus and General Procedure
On the day of experiments, the mice were brought into the procedural room. They were housed individually and allowed to acclimate for at least a half hour prior to testing. Although the studies were conducted during the light cycle (from 8:00 to 16:00 h), the procedure room was only sparsely lit (3 to 30 LUX) to provide better contrast for the video tracking. Local lighting was used for the injection procedures. During each trial, an individual mouse was placed in an open field arena (grey PVC cylinder with a height of 40 cm and a diameter of 22.5 cm). Each arena was placed on an infrared LED (8×8 LEDs)-lit box (white PVC squared box; 40×40 cm^2; height 12.5 cm). Each mouse was placed in the center of the arena and allowed to explore freely for 30 min. After each trial, the arena was cleaned with a wet and subsequently with a dry cleaning cloth. An infrared sensitive tube camera and a white light source (in arena: 4-7 LUX) were mounted to the ceiling above the observation chamber to record and input activity to a computer. Animal behavior was recorded and analyzed using the Noldus Ethovision XT Video Tracking System (Version 3.1; Noldus, Wageningen, The Netherlands). The total distance traveled (cm) was calculated. Data were then exported to data management systems for further analysis and reporting.
Phencyclidine (PCP)-Induced Hyperlocomotion in Mice
Test compound or solvent was administered at a pre-defined time before measurement (standard: 30 min) to male NMRI mice that were challenged with phencyclidine (PCP; 5 mg/kg, s.c.) 30 min before measurement. Activity was measured for a period of 30 min.

[4] = system: memantine-induced 2DG uptake in mouse brain (hippocampus); test: Reversal of memantine-induced brain activation ([14C]2DG uptake) in mice; type: in vivo; conditions: for L.A.D. (lowest active dose for significant reduction of 2DG uptake in hippocampus vs memantine response): mice C57BL/6, s.c., memantine 20 mg/kg s.c., p<0.05
Protocol: Reversal of Memantine-Induced Brain Activation in Mice
NMDA receptor hypofunction is hypothesized to be involved in schizophrenia.
Autoradiographic assessment of radiolabeled [^14C]-2-deoxyglucose ([^14C]2DG) uptake is commonly used to investigate brain activation. In humans, cerebral blood flow is increased in specific brain regions after administration of a subanaesthetic dose of ketamine.
Male mice (C57BL/6, weight 24-28 g, fasted overnight; n=10 animals per group) were treated with vehicle or test compound (s.c.) in randomized order (t=0 min). Memantine (20 mg/kg, s.c.) was injected 30 min later (t=30 min). At t=45 min, [^14C]2DG (0.16 μCi/g) was administered intraperitoneally (i.p.), followed by a 45 min uptake period. Animals were decapitated (t=90 min), plasma glucose levels measured, the brain removed, rapidly frozen and stored at −20° C. until sectioned. Brain sections were exposed together to a precalibrated [^14C]standard on film, which was developed after four days of exposure. Local tissue [^14C]concentration (nCi/mg tissue equivalent—TEQ—) in each region of interest was determined.
Data was analyzed statistically using a two-way ANOVA analysis followed by post-hoc tests (memantine response versus reversal by the compound). The results are shown in table 5 below, expressed as lowest active dose (L.A.D.) required to exert a statistically significant (p<0.05) reduction of 2DG uptake in the hippocampus compared to memantine response.

[5] = compound administered orally (*); a)/b) = estimated ED50 values
[6] = not marked * (not oral; injection per method); b) = estimated ED50 values (n = 3 per dose)

T1 sequence (Q14416 19-872): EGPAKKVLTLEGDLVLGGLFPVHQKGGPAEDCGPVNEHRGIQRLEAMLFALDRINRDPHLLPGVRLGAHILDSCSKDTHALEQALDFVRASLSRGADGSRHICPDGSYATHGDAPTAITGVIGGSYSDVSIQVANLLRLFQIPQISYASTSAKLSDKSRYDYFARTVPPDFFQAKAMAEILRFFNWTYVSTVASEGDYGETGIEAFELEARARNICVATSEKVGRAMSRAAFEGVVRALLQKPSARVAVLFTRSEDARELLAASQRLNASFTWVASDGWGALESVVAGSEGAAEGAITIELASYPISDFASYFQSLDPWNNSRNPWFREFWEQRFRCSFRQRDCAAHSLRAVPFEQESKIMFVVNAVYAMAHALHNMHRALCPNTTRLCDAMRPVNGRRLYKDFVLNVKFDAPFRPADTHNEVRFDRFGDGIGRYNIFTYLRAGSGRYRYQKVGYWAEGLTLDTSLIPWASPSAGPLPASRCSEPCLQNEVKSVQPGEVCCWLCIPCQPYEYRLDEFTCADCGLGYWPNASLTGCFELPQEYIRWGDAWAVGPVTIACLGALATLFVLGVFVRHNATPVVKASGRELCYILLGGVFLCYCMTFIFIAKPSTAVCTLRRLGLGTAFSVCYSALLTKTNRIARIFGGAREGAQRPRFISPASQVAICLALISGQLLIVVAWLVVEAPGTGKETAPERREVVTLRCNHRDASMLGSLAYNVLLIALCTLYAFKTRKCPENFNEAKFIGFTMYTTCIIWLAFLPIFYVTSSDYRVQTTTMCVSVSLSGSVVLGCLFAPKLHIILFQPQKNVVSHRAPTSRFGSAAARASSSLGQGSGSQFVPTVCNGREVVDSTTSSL

SMILES | GTPγS - hR2 PAM pEC50 [2] | melting point | EC50 [2] | inhibition of PCP-induced hyperlocomotion in mice (in words) [3] | other results
FC(F)(F)Cc1nnc2c(Cl)c(N3CCC(F)(c4ccccc4)CC3)ccn12 [compound 3, 8-Chloro-7-(4-fluoro-4-phenyl-1-piperidinyl)-3-(2,2,2-trifluoroethyl)-1,2,4-triazolo[4,3-a]pyridine] | 6.94 |  |  | inhibited | inhibition of the conditioned avoidance response in rats (in words) [1]: inhibited; ED50 [1, 5]: 14.1 mg/kg; ED50 [1, 6]: 10.7 mg/kg; ED50 [3]: 15.2 mg/kg; L.A.D. (lowest active dose for significant reduction of 2DG uptake in hippocampus vs memantine response) [4]: ≤2.5 mg/kg, s.c.
FC(F)(F)C1(c2ccccc2)CCN(c2ccn3c(CC4CC4)nnc3c2Cl)CC1 [compound 15, 8-Chloro-3-(cyclopropylmethyl)-7-(4-trifluoromethyl-4-phenyl-piperidin-1-yl)-1,2,4-triazolo[4,3-a]pyridine] | 6.75 | 276.7 °C |  |  | ED50 [1, 5]: ≥ 40 mg/kg; ED50 [3]: > 10 mg/kg
FC(F)(F)c1c(N2CCC3(CC2)COc2ccccc23)ccn2c(CC3CC3)nnc12 [compound 17, 1′-[3-cyclopropylmethyl-8-(trifluoromethyl)[1,2,4]triazolo[4,3-a]pyridin-7-yl]-spiro[1-benzofuran-3,4′-piperidine]] |  | > 300 °C | 35.5 nM | inhibited | ED50 [3]: 15.2 mg/kg
FC(F)(F)c1c(N2CCN(c3ccccc3)CC2)ccn2c(CC3CC3)nnc12 [compound 76] | 6.93 |  |  | inhibited | ED50 (mg/kg) CAR-Inh. [1, 5]: ≥40* mg/kg; Mice ED50 (mg/kg) PCP-Inh. [3]: 3.1^ mg/kg
Fc1ccc(N2CCN(c3ccn4c(CC(F)(F)F)nnc4c3Cl)CC2)c(F)c1 [compound 97] | 6.3 |  |  | inhibited | inhibition of the conditioned avoidance response in rats (in words) [1]: inhibited; ED50 (mg/kg) CAR-Inh. [1, 5]: 32*^b) mg/kg; ED50 (mg/kg) CAR-Inh. [1, 6]: 16^b) mg/kg; Mice ED50 (mg/kg) PCP-Inh., estimated ED50 (footnote a) [3]: 6.3 ^a) mg/kg; L.A.D. (lowest active dose for significant reduction of 2DG uptake in hippocampus vs memantine response) [4]: ≤10 mg/kg, s.c.
FC(F)(F)Cc1nnc2c(Cl)c(N3CCC4(CC3)COc3ccccc34)ccn12 [compound 98] | 6.75 |  |  |  | Mice ED50 (mg/kg) PCP-Inh. [3]: >40 mg/kg; L.A.D. (lowest active dose for significant reduction of 2DG uptake in hippocampus vs memantine response) [4]: ≤10 mg/kg, s.c.
CC1(C)OC2(CCN(c3ccn4c(CC5CC5)nnc4c3C(F)(F)F)CC2)c2ccccc21 [compound 112, 1′-[3-cyclopropylmethyl-8-(trifluoromethyl)[1,2,4]triazolo[4,3-a]pyridin-7-yl]-3,3-dimethyl-3H-spiro[benzo[c]furan-1,4′-piperidine]] |  | 207.7 °C | 6.46 nM | inhibited | ED50 [3]: 2 mg/kg; L.A.D. (lowest active dose for significant reduction of 2DG uptake in hippocampus vs memantine response) [4]: ≤2.5 mg/kg, s.c.
CC1(c2ccccc2)CCN(c2ccn3c(CC4CC4)nnc3c2C(F)(F)F)CC1 [compound 151] | 7.48 |  |  | inhibited | Mice ED50 (mg/kg) PCP-Inh., estimated ED50 (footnote a) [3]: 12.6 ^a) mg/kg; L.A.D. (lowest active dose for significant reduction of 2DG uptake in hippocampus vs memantine response) [4]: 10 mg/kg, s.c.
CCc1c(N2CCC(c3ccccc3)CC2)ccn2c(CC3CC3)nnc12 [compound 171, 3-Cyclopropylmethyl-8-ethyl-7-(4-phenylpiperidin-1-yl)-[1,2,4]triazolo[4,3-a]pyridine] |  | > 300 °C | 251 nM |  | 
Fc1ccc(N2CCN(Cc3ccn4c(CC5CC5)nnc4c3C(F)(F)F)CC2)c(F)c1 [compound 224, 3-(Cyclopropylmethyl)-7-[[4-(2,4-difluorophenyl)-1-piperazinyl]methyl]-8-(trifluoromethyl)-1,2,4-triazolo[4,3-a]pyridine] |  |  |  | inhibited | inhibition of the conditioned avoidance response in rats (in words) [1]: inhibited; ED50 [1, 6]: 5 mg/kg; Mice ED50 (mg/kg) PCP-Inh., estimated ED50 (footnote a) [3]: 2.0 ^a) mg/kg
FC(F)(F)c1c(CN2CCC(c3ccccc3)CC2)ccn2c(CC3CC3)nnc12 [compound 298, 3-(Cyclopropylmethyl)-7-[(4-phenyl-1-piperidinyl)methyl]-8-(trifluoromethyl)-1,2,4-triazolo[4,3-a]pyridine] |  |  |  | inhibited | inhibition of the conditioned avoidance response in rats (in words) [1]: inhibited; ED50 [1, 6]: 5 mg/kg; Mice ED50 (mg/kg) PCP-Inh., estimated ED50 (footnote a) [3]: 5.0 ^a) mg/kg
O=C(CCCN1CCC(O)(c2ccc(Cl)cc2)CC1)c1ccc(F)cc1 [haloperidol, reference compound] |  |  |  |  | effect on memantine-induced brain glucose metabolism / 2DG uptake (in words) ([4]; mouse brain, reference drugs): inactive

Further lines, with some results ahead:

GTPγS - hR2 PAM pEC50 [2] | melting point | EC50 [2] | SMILES | inhibition of PCP-induced hyperlocomotion in mice (in words) [3] | other results
 | 147.5 °C | 93.3 nM | C[C@@H]1CN(c2ccn3c(CC4CC4)nnc3c2C(F)(F)F)CCN1c1cc(F)cc(F)c1 [compound 182, 3-(Cyclopropylmethyl)-7-((3R)-4-3,5-difluorophenyl-3-methylpiperazin-1-yl)-(8-trifluoromethyl)-1,2,4-triazolo[4,3-a]pyridine] |  | 
 | 283.5 °C | 1350 nM | Cc1c(C2CCN(c3ccc(F)cc3F)CC2)ccn2c(CC3CC3)nnc12 [compound 204, 3-Cyclopropylmethyl-7-[1-(2,4-difluoro-phenyl)-piperidin-4-yl]-8-methyl-[1,2,4]triazolo[4,3-a]pyridine] |  | 
 | 281.5 °C | 35.5 nM | Brc1c(N2CCC(c3ccccc3)CC2)ccn2c(CC3CC3)nnc12 [compound 207, 8-Bromo-3-cyclopropylmethyl-7-[4-phenylpiperidin-1-yl]-[1,2,4]triazolo[4,3-a]pyridine] |  | 
 | 142.3 °C | 24 nM | CC(c1ccn2c(CC3CC3)nnc2c1C(F)(F)F)N1CCC(c2ccccc2)CC1 (centres unmarked) [compound 244, 3-cyclopropylmethyl-7-[1-(4-phenyl-1-piperidinyl)ethyl]-8-trifluoromethyl-1,2,4-triazolo[4,3-a]pyridine] |  | Mice ED50 (mg/kg) PCP-Inh., estimated ED50 (footnote a) [3]: 5.0 ^a) mg/kg
 | 182.1 °C | 166 nM | CC(c1ccn2c(CC3CC3)nnc2c1Cl)N1CCC(c2ccccc2)CC1 (centres unmarked) [compound 255] |  | 
 | 180.4 °C | 204 nM | Fc1cccc(F)c1N1CCN(Cc2ccn3c(CC4CC4)nnc3c2Cl)CC1 [compound 282] |  | 

Reference: patent US10071095B2, “1,2,4-triazolo [4,3-A] pyridine derivatives and their use for the treatment of neurological and psychiatric disorders” (JANSSEN PHARMACEUTICALS, INC., priority 2009, dated 2018)
